{"source": "PubChem BioAssay AID1259407", "about": "(Chemical Carcinogenesis Research Information System (CCRIS), 2018)", "system": "CCRIS mutagenicity, Ames/micronucleus/aberration tests", "experiment": "CCRIS mutagenicity studies", "key": {"[1]": {"conditions": "Test System: AMES SALMONELLA TYPHIMURIUM, Strain/Indicator: TA100, Metabolic Activation: NONE, Method: PREINCUBATION"}, "[2]": {"conditions": "Test System: AMES SALMONELLA TYPHIMURIUM, Strain/Indicator: TA98, Metabolic Activation: NONE, Method: STANDARD PLATE"}, "[3]": {"conditions": "Test System: AMES SALMONELLA TYPHIMURIUM, Strain/Indicator: TA98, Metabolic Activation: RAT, LIVER, S-9, AROCLOR 1254, Method: STANDARD PLATE"}}, "note": "Calls of active or inactive are those of the source. The rule behind the calls is not given here.", "data": [{"smiles": "CC(=O)[C@@]1(C)O[C@]12C(=O)C=Cc1ccccc12", "values": [{"measurement": "mutagenic call", "setting": "[1]", "result": "inactive; negative"}]}, {"smiles": "CC(=O)N(O)c1ccc([N+](=O)[O-])cc1", "values": [{"measurement": "mutagenic call", "setting": "Test System: AMES SALMONELLA TYPHIMURIUM, Strain/Indicator: TA98(NR), Metabolic Activation: NONE, Method: STANDARD PLATE", "result": "inactive; negative"}, {"measurement": "mutagenic call", "setting": "Test System: AMES SALMONELLA TYPHIMURIUM, Strain/Indicator: TA98(NR), Metabolic Activation: RAT, LIVER, S-9, AROCLOR 1254, Method: STANDARD PLATE", "result": "inactive; negative"}, {"measurement": "mutagenic call", "setting": "[2]", "result": "active; positive"}, {"measurement": "mutagenic call", "setting": "[3]", "result": "active; positive"}, {"measurement": "mutagenic call", "setting": "Test System: AMES SALMONELLA TYPHIMURIUM, Strain/Indicator: TA1538(NR), Metabolic Activation: NONE, Method: STANDARD PLATE", "result": "inactive; negative"}, {"measurement": "mutagenic call", "setting": "Test System: AMES SALMONELLA TYPHIMURIUM, Strain/Indicator: TA1538(NR), Metabolic Activation: RAT, LIVER, S-9, AROCLOR 1254, Method: STANDARD PLATE", "result": "inactive; negative"}, {"measurement": "mutagenic call", "setting": "Test System: AMES SALMONELLA TYPHIMURIUM, Strain/Indicator: TA1538, Metabolic Activation: NONE, Method: STANDARD PLATE", "result": "active; positive"}, {"measurement": "mutagenic call", "setting": "Test System: AMES SALMONELLA TYPHIMURIUM, Strain/Indicator: TA1538, Metabolic Activation: RAT, LIVER, S-9, AROCLOR 1254, Method: STANDARD PLATE", "result": "active; positive"}]}, {"smiles": "[O]=[U](=[O])=[O]", "values": [{"measurement": "mutagenic call", "setting": "Test System: Human bronchial epithelial (BEP2D) cells, Metabolic Activation: None, Method: Morphological transformation", "result": "active; positive. depleted uranium transformed cell lines exhibited significant chromoso"}]}, {"smiles": "C1CSCSC1", "values": [{"measurement": "mutagenic call", "setting": "[2]", "result": "active; positive"}, {"measurement": "mutagenic call", "setting": "[3]", "result": "inactive; negative"}, {"measurement": "mutagenic call", "setting": "Test System: AMES SALMONELLA TYPHIMURIUM, Strain/Indicator: TA100, Metabolic Activation: NONE, Method: STANDARD PLATE", "result": "active; positive"}, {"measurement": "mutagenic call", "setting": "Test System: AMES SALMONELLA TYPHIMURIUM, Strain/Indicator: TA100, Metabolic Activation: RAT, LIVER, S-9, AROCLOR 1254, Method: STANDARD PLATE", "result": "active; positive"}]}, {"smiles": "CCNC(=O)/C=C/c1ccc([N+](=O)[O-])o1", "values": [{"measurement": "mutagenic call", "setting": "Test System: AMES SALMONELLA TYPHIMURIUM, Strain/Indicator: TA98, Metabolic Activation: NONE, Method: PREINCUBATION", "result": "active; positive"}]}, {"smiles": "CC12OOC1(COC(=O)Nc1ccc(Cl)cc1)Oc1ccccc12", "note": "(configuration not stated)", "values": [{"measurement": "mutagenic call", "setting": "[1]", "result": "active; positive"}]}, {"smiles": "CC(=O)Nc1cc2c(cc1OC(C)=O)-c1ccccc1C2", "values": [{"measurement": "mutagenic call", "setting": "[3]", "result": "inactive; negative"}]}]}
